From US20260217767A1, “NOVEL A4B7 THIOETHER PEPTIDE DIMER ANTAGONISTS” (Protagonist Therapeutics, Inc., priority 2014, published 2026)
*1 amine or outer side, *2 acyl side, *3 side chain or, on linkers, in order; H or OH if unused. Where a SMILES comes first, the peptide text is derived from it. Bridges are numbered along the chain shown (N, C = ends). Roman numbers before positions name the chains, in order. [ ]: non-standard residue; d: D form. Phe(4-tBu) = CC(C)(C)c1ccc(C[C@H](N)C(=O)O)cc1; Bip = N[C@@H](Cc1ccc(-c2ccccc2)cc1)C(=O)O; Diglycolyl = O=C(COCC(=O)[*:2])[*:1]; NMeR = CN[C@@H](CCCNC(=N)N)C(=O)O; Tic = O=C(O)[C@@H]1Cc2ccccc2CN1; β3hE = N[C@@H](CCC(=O)O)CC(=O)O; X1 = O=C(c1ccccc1C[*:2])[*:1]; Pen = CC(C)(S)[C@H](N)C(=O)O

Columns and labels:
[1] = tested on: CD4+/CD45RO+ memory T cells; experiment: PBMC Memory T Cell Adhesion Assay; type: cell-based, human; conditions: thioether monomer peptides, Table 6
Protocol: PBMC Memory T Cell Adhesion Assay
Fresh CD4+/CD45RO+ memory T cells were isolated from human peripheral blood mononuclear cell (PBMC) donors by Aragen Bioscience Inc. (Morgan Hill, CA). The assay plate was prepared using IgG Fc capture antibody (donkey anti human) immobilized at 500 ng/well in 50 mM sodium bicarbonate buffer, pH 9.5, ON, 4 C onto a Greiner Fluotrac plate (100 ul per well). The plate was rinsed two time with Blocking Buffer (25 mM Tris HCl, pH7.5, 150 mM NaCl, 1.5% BSA, 0.05% Tween), and blocked with Blocking Buffer for 2 hours at 37 C or 5 hours at RT using 200 ul per well. The Blocking Buffer was removed and either MAdCAM-1 or VCAM-1 at 400 ng/well in Blocking Buffer was added and the plate incubated overnight at 4 C (100 ul per well). The plate was washed two times with Blocking Buffer, and rinsed once with 200 ul Binding Media (DMEM phenol red free, 10 mM HEPES, 1×Na pyruvate, 1× Glutamine, and supplemented with 1 mM MnC12 prior to use). To prepare cells, approximately 25 million CD4+/CD45RO+ memory T cells were counted by trypan blue exclusion using a haemocytometer to determine viability and cell count. The cells were transferred to a 50 ml conical tube, and centrifuged at 1200 rpm for 10 minute. The media was aspirated and the cell pellet resuspended in 15 ml Binding Media. The cells were centrifuged again and resuspended in the appropriate amount of Binding Media to be used for assays (50 ul of cells per well at 2× the final density). To each well, and equal volume (50 ul) of test compound was added and the plate was incubated for 1.5 hours at 37 C, 5% CO2. Each well was rinsed 3× with 150 ul per well of Binding Media. […] The plate was incubated at 37 C, 5% CO2, for 45 minutes. The plate was protected from light by using black adhesive seals. Fluorescence intensity was measured using a Molecular Devices Gemini EM Fluorescent Plate Reader (Ex 485/Em530, Bottom Read, Reading Sensitivity=20). IC50 curves are generated using Graph Pad Prism and the curves analyzed using analyzed using a non-linear regression (four parameters) algorithm. The log (concentration) versus RFU (Ex485/Em530) was plotted to determine IC50 values.

[2] = Simulated Gastric Fluid (SGF) Stability Assay; type: in vitro ADME; conditions: pig, pH 2, 37° C., dimers, Table 7; for half-life at 20 μM: simulated gastric fluid (SGF) with porcine pepsin; for half-life: simulated gastric fluid (with porcine pepsin)
Protocol: Simulated Gastric Fluid (SGF) Stability Assays
Studies were carried out in simulated gastric fluid (SGF) to evaluate intestinal stability of the peptide molecules of the instant invention. SGF was prepared by adding 20 mg NaCl, 32 mg porcine pepsin (MP Biochemicals, catalog 02102599), and 70 μl HCl to 10 ml water (final pH=2). Aliquots of SGF (0.5 ml each) were pre-warmed at 37° C. To start the reaction, 1 μl of peptide stock solution (10 mM in DMSO) was added to 0.5 ml SGF and thoroughly mixed such that the final peptide concentration was 20 μM. The reactions were incubated at 37° C. with gentle shaking. At each time point (0, 15, 30, 60 min) 50 μl aliquots were removed and added to 200 μl acetonitrile containing 0.1% formic acid to quench the reaction. Samples are stored at 4° C. until the end of the experiment and centrifuged at 10,000 rpm for 5 minutes. Aliquots of the supernatant were removed, diluted 1:1 into distilled water containing internal standard, and analyzed by LCMS/MS. Percent remaining at each timepoint was calculated based on the peak area response ratio of test to compound to internal standard. Time 0 was set to 100%, and all later timepoints were calculated relative to time 0. Half-lives were calculated by fitting to a first-order exponential decay equation using GraphPad.

## CC(C)C[C@@H]1NC(=O)[C@H]([C@@H](C)O)NC(=O)[C@H](CC(=O)O)NC(=O)[C@H](CO)NC(=O)[C@H](CCCNC(=N)N)N(C)C(=O)c2ccccc2CSC(C)(C)[C@@H](C(=O)N[C@@H](Cc2c[nH]c3ccccc23)C(=O)N[C@H](CCC(=O)O)C(=O)N[C@@H](Cc2ccccc2)C(N)=O)NC1=O [compound 101] (HELM PEPTIDE1{[meR].S.D.T.L.[Pen].W.[dE].F.[am]}|CHEM1{[O=C(c1ccccc1C[*:2])[*:1]]}$PEPTIDE1,CHEM1,1:R1-1:R1|PEPTIDE1,CHEM1,6:R3-1:R2$$$V2.0)
[1]
  IC50: 100 to 1000 nM

## CC(C)C[C@@H]1NC(=O)[C@H]([C@@H](C)O)NC(=O)[C@H](CC(=O)O)NC(=O)[C@H](CO)NC(=O)[C@H](CCCNC(=N)N)N(C)C(=O)c2ccccc2CSC(C)(C)[C@@H](C(=O)N[C@@H](Cc2ccc(-c3ccccc3)cc2)C(=O)N[C@@H](CCC(=O)O)CC(N)=O)NC1=O [compound 133] ([NMeR]SDTL[Pen][Bip][β3hE]-NH2; linker N-6 via X1)
[1]
  IC50: 100 to 1000 nM

## CC(C)C[C@@H]1NC(=O)[C@H]([C@@H](C)O)NC(=O)[C@H](CC(=O)O)NC(=O)[C@H](CO)NC(=O)[C@H](CCCNC(=N)N)N(C)C(=O)c2ccccc2CSC(C)(C)[C@@H](C(=O)N[C@@H](Cc2ccc(C(C)(C)C)cc2)C(=O)N[C@@H](CCC(=O)O)CC(N)=O)NC1=O [compound 134] ([NMeR]SDTL[Pen][Phe(4-tBu)][β3hE]-NH2; linker N-6 via X1)
[1]
  IC50: 25 to 100 nM

## CC(C)C[C@@H]1NC(=O)[C@H]([C@@H](C)O)NC(=O)[C@H](CC(=O)O)NC(=O)[C@H](CO)NC(=O)[C@H](CCCNC(=N)N)N(C)C(=O)c2ccccc2CSC(C)(C)[C@@H](C(=O)N[C@@H](Cc2ccc(-c3ccccc3)cc2)C(=O)N[C@H](CCC(=O)O)C(=O)N[C@H](CCCCN)C(N)=O)NC1=O [compound 178] (HELM PEPTIDE1{[meR].S.D.T.L.[Pen].[O=C([C@H](Cc1ccc(-c2ccccc2)cc1)N[*:1])[*:2]].[dE].[dK].[am]}|CHEM1{[O=C(c1ccccc1C[*:2])[*:1]]}$PEPTIDE1,CHEM1,1:R1-1:R1|PEPTIDE1,CHEM1,6:R3-1:R2$$$V2.0)
[2]
  half-life at 20 μM: > 180 min

## CC(C)C[C@@H]1NC(=O)[C@H]([C@@H](C)O)NC(=O)[C@H](CC(=O)O)NC(=O)[C@H](CO)NC(=O)[C@H](CCCNC(=N)N)N(C)C(=O)c2ccccc2CSC[C@@H](C(=O)N2Cc3ccccc3C[C@H]2C(=O)N[C@H](CCC(=O)O)C(=O)N[C@H](CCCCNC(=O)COCC(=O)NCCCC[C@@H](NC(=O)[C@@H](CCC(=O)O)NC(=O)[C@@H]2Cc3ccccc3CN2C(=O)[C@@H]2CSCc3ccccc3C(=O)N(C)[C@@H](CCCNC(=N)N)C(=O)N[C@@H](CO)C(=O)N[C@@H](CC(=O)O)C(=O)N[C@@H]([C@@H](C)O)C(=O)N[C@@H](CC(C)C)C(=O)N2)C(N)=O)C(N)=O)NC1=O [compound 184] (I: [NMeR]SDTLC[Tic][dE][dK]-NH2 / II: [NMeR]SDTLC[Tic][dE][dK]-NH2; linker I:9-II:9 via Diglycolyl; linker I:N-I:6, II:N-II:6 via X1)
[2]
  half-life at 20 μM: > 180 min

## CC(C)C[C@@H]1NC(=O)[C@H]([C@@H](C)O)NC(=O)[C@H](CC(=O)O)NC(=O)[C@H](CO)NC(=O)[C@H](CCCNC(=N)N)N(C)C(=O)c2ccccc2CSC(C)(C)[C@@H](C(=O)N[C@@H](Cc2ccccc2)C(=O)N[C@H](CCC(=O)O)C(=O)N[C@H](CCCCNC(=O)COCC(=O)NCCCC[C@@H](NC(=O)[C@@H](CCC(=O)O)NC(=O)[C@H](Cc2ccccc2)NC(=O)[C@H]2NC(=O)[C@H](CC(C)C)NC(=O)[C@H]([C@@H](C)O)NC(=O)[C@H](CC(=O)O)NC(=O)[C@H](CO)NC(=O)[C@H](CCCNC(=N)N)N(C)C(=O)c3ccccc3CSC2(C)C)C(=O)O)C(=O)O)NC1=O [compound 204] (I: [NMeR]SDTL[Pen]F[dE][dK]-OH / II: [NMeR]SDTL[Pen]F[dE][dK]-OH; linker I:9-II:9 via Diglycolyl; linker I:N-I:6, II:N-II:6 via X1)
[2]
  half-life: > 180 min

## CC(C)C[C@@H]1NC(=O)[C@H]([C@@H](C)O)NC(=O)[C@H](CC(=O)O)NC(=O)[C@H](CO)NC(=O)[C@H](CCCNC(=N)N)N(C)C(=O)c2ccccc2CSC[C@@H](C(=O)N2Cc3ccccc3C[C@H]2C(=O)N[C@H](CCC(=O)O)C(=O)N[C@H](CCCCNC(=O)COCC(=O)NCCCC[C@@H](NC(=O)[C@@H](CCC(=O)O)NC(=O)[C@@H]2Cc3ccccc3CN2C(=O)[C@@H]2CSCc3ccccc3C(=O)N(C)[C@@H](CCCNC(=N)N)C(=O)N[C@@H](CO)C(=O)N[C@@H](CC(=O)O)C(=O)N[C@@H]([C@@H](C)O)C(=O)N[C@@H](CC(C)C)C(=O)N2)C(=O)O)C(=O)O)NC1=O [compound 207] (I: [NMeR]SDTLC[Tic][dE][dK]-OH / II: [NMeR]SDTLC[Tic][dE][dK]-OH; linker I:9-II:9 via Diglycolyl; linker I:N-I:6, II:N-II:6 via X1)
[2]
  half-life: > 180 min

## CC(C)C[C@@H]1NC(=O)[C@H]([C@@H](C)O)NC(=O)[C@H](CC(=O)O)NC(=O)[C@H](CO)NC(=O)[C@H](CCCNC(=N)N)N(C)C(=O)c2ccccc2CSC(C)(C)[C@@H](C(=O)N[C@@H](Cc2ccc(-c3ccccc3)cc2)C(=O)N[C@H](CCC(=O)O)C(=O)N[C@H](CCCCNC(=O)COCC(=O)NCCCC[C@@H](NC(=O)[C@@H](CCC(=O)O)NC(=O)[C@H](Cc2ccc(-c3ccccc3)cc2)NC(=O)[C@H]2NC(=O)[C@H](CC(C)C)NC(=O)[C@H]([C@@H](C)O)NC(=O)[C@H](CC(=O)O)NC(=O)[C@H](CO)NC(=O)[C@H](CCCNC(=N)N)N(C)C(=O)c3ccccc3CSC2(C)C)C(=O)O)C(=O)O)NC1=O [compound 208] (I: [NMeR]SDTL[Pen][Bip][dE][dK]-OH / II: [NMeR]SDTL[Pen][Bip][dE][dK]-OH; linker I:9-II:9 via Diglycolyl; linker I:N-I:6, II:N-II:6 via X1)
[2]
  half-life: > 180 min
